Literature values as cited in patent US20220257562A1, “METHOD FOR IMPROVING ENDOMETRIOSIS AND METHOD FOR PRODUCING A MATERIAL USED THEREFOR” (NICHIMO CO., LTD., priority 2017, published 2022).

Key:
[1] = system: MCF-7; conditions: for effect on tamoxifen: MCF-7 / mammary tumors, Non-patent Literature 15, 17; for cell proliferation of estrogen-dependent breast cancer cells (MCF-7): Non-patent Literature 14, 16
[2] = molecular target: ERβ (Homo sapiens, UniProt Q92731); conditions: Non-Patent Literature 23
ERβ, sequence (Q92731 whole entry, species assumed): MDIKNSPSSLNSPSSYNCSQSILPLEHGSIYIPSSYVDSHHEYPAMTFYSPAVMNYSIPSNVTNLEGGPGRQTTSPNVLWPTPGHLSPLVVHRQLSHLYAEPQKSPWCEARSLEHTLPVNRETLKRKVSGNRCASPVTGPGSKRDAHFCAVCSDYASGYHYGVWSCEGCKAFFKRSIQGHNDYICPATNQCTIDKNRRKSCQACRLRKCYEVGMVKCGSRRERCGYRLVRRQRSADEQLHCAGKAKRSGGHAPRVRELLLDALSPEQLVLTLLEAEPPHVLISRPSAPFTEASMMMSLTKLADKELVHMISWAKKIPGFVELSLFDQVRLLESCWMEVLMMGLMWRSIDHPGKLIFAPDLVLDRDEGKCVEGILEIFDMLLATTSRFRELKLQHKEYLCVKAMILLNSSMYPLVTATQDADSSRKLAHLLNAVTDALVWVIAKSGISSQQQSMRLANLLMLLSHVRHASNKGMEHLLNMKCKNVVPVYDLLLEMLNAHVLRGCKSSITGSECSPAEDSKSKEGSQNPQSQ

binding to ERβ [2] | SMILES | effect on tamoxifen [1] | cell proliferation of estrogen-dependent breast cancer cells (MCF-7) [1]
 | O=c1c(-c2ccc(O)cc2)coc2cc(O)cc(O)c12 [Genistein, genistein] | attenuates the inhibitory effect of tamoxifen | promotes cell proliferation
binds weakly | O=c1c(-c2ccc(O)cc2)coc2cc(O)ccc12 [daidzein] | improved the therapeutic effect of tamoxifen | suppressed the proliferation
